From the supplement of paper PMC11061612

Legend:
Test in all cases: Bliss excess, mean over the matrix (fraction); higher = more synergy
[1] = tested on: 786-0 (Kidney Carcinoma)
Summary of the method: (§1)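 Bliss excess equals the observed combination effect minus the expected value EA + EB − EA·EB, where EA and EB are the effects of each agent alone. Combination Emax is the second-highest inhibition within the matrix. Inhibition was scaled from CellTiter-Glo 2.0 luminescence, with 0 set by vehicle wells and 1 by blank wells, after 72 hours of two-drug dosing of cells plated in 1536-well plates.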

[2] = tested on: AN3-CA (Endometrial Carcinoma)
Summary of the method: as §1

[3] = tested on: CML-T1 (Chronic Myelogenous Leukemia)
Summary of the method: as §1

[4] = tested on: Calu-6 (Non-Small Cell Lung Carcinoma)
Summary of the method: as §1

[5] = tested on: Caov-3 (Ovarian Carcinoma)
Summary of the method: as §1

[6] = tested on: EB-3 (Burkitt's Lymphoma)
Summary of the method: as §1

[7] = tested on: ES-2 (Ovarian Carcinoma)
Summary of the method: as §1

[8] = tested on: FLO-1 (Esophageal Adenocarcinoma)
Summary of the method: as §1

[9] = tested on: HTC-C3 (Thyroid Gland Carcinoma)
Summary of the method: as §1

[10] = tested on: HuO-3N1 (Osteosarcoma)
Summary of the method: as §1

[11] = tested on: LAMA-84 (Chronic Myelogenous Leukemia)
Summary of the method: as §1

[12] = tested on: NCI-H1563 (Lung Adenocarcinoma)
Summary of the method: as §1

[13] = tested on: NCI-H1755 (Lung Adenocarcinoma)
Summary of the method: as §1

[14] = tested on: NCI-H196 (Small Cell Lung Carcinoma)
Summary of the method: as §1

[15] = tested on: PANC-02-03 (Pancreatic Carcinoma)
Summary of the method: as §1

[16] = tested on: RPMI-8866 (Chronic Myelogenous Leukemia)
Summary of the method: as §1

[17] = tested on: RT4 (Bladder Carcinoma)
Summary of the method: as §1

[18] = tested on: SJRH30 (Rhabdomyosarcoma)
Summary of the method: as §1

[19] = tested on: SK-MM-2 (Plasma Cell Myeloma)
Summary of the method: as §1

[20] = tested on: SNU-175 (Colorectal Carcinoma)
Summary of the method: as §1

SMILES	Bliss excess [1]	Bliss excess [2]	Bliss excess [3]	Bliss excess [4]	Bliss excess [5]	Bliss excess [6]	Bliss excess [7]	Bliss excess [8]	Bliss excess [9]	Bliss excess [10]	Bliss excess [11]	Bliss excess [12]	Bliss excess [13]	Bliss excess [14]	Bliss excess [15]	Bliss excess [16]	Bliss excess [17]	Bliss excess [18]	Bliss excess [19]	Bliss excess [20]
CC1(C)CCC(CN2CCN(c3ccc(C(=O)NS(=O)(=O)c4ccc(NCC5CCOCC5)c([N+](=O)[O-])c4)c(Oc4cnc5[nH]ccc5c4)c3)CC2)=C(c2ccc(Cl)cc2)C1 [Venetoclax] + C=CCn1c(=O)c2cnc(Nc3ccc(N4CCN(C)CC4)cc3)nc2n1-c1cccc(C(C)(C)O)n1 [AZD1775] (first compound max 1 µM, partner max 1 µM)	-0.0686	-0.0253	0.0106	-0.0317	0.0265	-0.0193	-0.0297	0.0161	-0.065	-0.0172	0.0884	0.0451	0.054	-0.0007	-0.0699	-0.0547	0.0364	-0.045	0.102	-0.0735
CC1(C)CCC(CN2CCN(c3ccc(C(=O)NS(=O)(=O)c4ccc(NCC5CCOCC5)c([N+](=O)[O-])c4)c(Oc4cnc5[nH]ccc5c4)c3)CC2)=C(c2ccc(Cl)cc2)C1 [Venetoclax] + CCN(CCO)CCCOc1ccc2c(Nc3cc(CC(=O)Nc4cccc(F)c4)[nH]n3)ncnc2c1 [AZD2811] (first compound max 1 µM, 7x7, partner max 1 µM)	-0.0469	0.0345	0.104	0.0331	-0.0544	0.0036	-0.0388	-0.019	-0.0236	0.0175	-0.0036	0.0151	-0.0135	-0.0463	-0.0283	0.133	0.0704	0.0544	-0.0099	-0.0552
CC1(C)CCC(CN2CCN(c3ccc(C(=O)NS(=O)(=O)c4ccc(NCC5CCOCC5)c([N+](=O)[O-])c4)c(Oc4cnc5[nH]ccc5c4)c3)CC2)=C(c2ccc(Cl)cc2)C1 [Venetoclax] + CN(C)CCCOc1ccc(-c2ccc3ncc4c(c3c2)n(C2CCOCC2)c(=O)n4C)cn1 [AZD0156] (first compound max 1 µM, 7x7, partner max 1 µM)	-0.0327	-0.06	0.0232	0.0071	-0.0386	0.0498	0.0069	-0.113	-0.0378	-0.0235	0.0018	-0.0099	0.0342	-0.0333	-0.0541	-0.0408	-0.0259	0.0084	-0.0129	-0.0511
CC1(C)CCC(CN2CCN(c3ccc(C(=O)NS(=O)(=O)c4ccc(NCC5CCOCC5)c([N+](=O)[O-])c4)c(Oc4cnc5[nH]ccc5c4)c3)CC2)=C(c2ccc(Cl)cc2)C1 [Venetoclax] + COc1cc(Nc2ncc3c(n2)-c2ccc(Cl)cc2C(c2c(F)cccc2OC)=NC3)ccc1C(=O)O [Alisertib] (first compound max 1 µM, 7x7, partner max 10 µM)	-0.0114	0.0374	0.0154	-0.0071	-0.119	-0.0103	-0.0017	-0.0379	-0.0285	-0.0154	-0.0447	-0.0523	-0.0281	-0.0371	-0.0527	0.0475	0.0354	0.0315	0.0207	0.007
CC1(C)CCC(CN2CCN(c3ccc(C(=O)NS(=O)(=O)c4ccc(NCC5CCOCC5)c([N+](=O)[O-])c4)c(Oc4cnc5[nH]ccc5c4)c3)CC2)=C(c2ccc(Cl)cc2)C1 [Venetoclax] + C[C@@H]1COCCN1C2=NC(=NC(=C2)C3(CC3)[S@](=N)(=O)C)C4=C5C=CNC5=NC=C4 [AZD6738] (first compound max 1 µM, 7x7, partner max 10 µM)	-0.0882	-0.0068	0.0145	-0.0261	-0.0574	-0.0047	-0.0372	-0.0338	-0.0354	-0.0375	-0.0263	0.0131	-0.0578	0.0092	-0.0199	0.0052	-0.0281	-0.0182	0.0217	-0.0392
CC1(C)CCC(CN2CCN(c3ccc(C(=O)NS(=O)(=O)c4ccc(NCC5CCOCC5)c([N+](=O)[O-])c4)c(Oc4cnc5[nH]ccc5c4)c3)CC2)=C(c2ccc(Cl)cc2)C1 [Venetoclax] + C[C@@H](Nc1cc(F)cc(F)c1)c1cc(C(=O)N(C)C)cc2c(=O)cc(N3CCOCC3)oc12 [AZD8186] (first compound max 1 µM, 7x7, partner max 3 µM)	-0.0095	-0.0453	0.0023	-0.0446	-0.0548	-0.0366	-0.0199	-0.0712	-0.0236	0.0158	-0.0006	0.0389	0.0229	-0.03	-0.0527	0.0151	-0.0208	-0.0248	0.024	-0.0201
CC1(C)CCC(CN2CCN(c3ccc(C(=O)NS(=O)(=O)c4ccc(NCC5CCOCC5)c([N+](=O)[O-])c4)c(Oc4cnc5[nH]ccc5c4)c3)CC2)=C(c2ccc(Cl)cc2)C1 [Venetoclax] + Cc1cc2ncnn2cc1Nc1ncc2c(n1)n(C1CCOCC1)c(=O)n2C [AZD7648] (first compound max 1 µM, 7x7, partner max 10 µM)	-0.0487	-0.0108	-0.0195	0.0067	-0.159	-0.0225	-0.0087	-0.114	-0.0197	0.044	-0.0041	-0.0123	-0.025	-0.0385	-0.0646	-0.026	-0.0115	0.0112	0.0145	-0.0327
CC1(C)CCC(CN2CCN(c3ccc(C(=O)NS(=O)(=O)c4ccc(NCC5CCOCC5)c([N+](=O)[O-])c4)c(Oc4cnc5[nH]ccc5c4)c3)CC2)=C(c2ccc(Cl)cc2)C1 [Venetoclax] + Cn1cnc2c(F)c(Nc3ccc(Br)cc3Cl)c(C(=O)NOCCO)cc21 [Selumetinib] (first compound max 1 µM, 7x7, partner max 3 µM)	-0.0347	-0.0076	0.0069	-0.0665	-0.0295	-0.0241	-0.0367	-0.0485	-0.049	-0.011	-0.0157	0.0042	0.0328	-0.044	-0.0386	-0.057	-0.0521	-0.0199	0.0187	-0.0157
